# The Kinase Knowledgebase extract (Sharma et al. 2016)
# pIC50: −log10 of the molar value.
# Target: EGFR (UniProt P00533)
# Sequence (P00533 whole entry, looked up): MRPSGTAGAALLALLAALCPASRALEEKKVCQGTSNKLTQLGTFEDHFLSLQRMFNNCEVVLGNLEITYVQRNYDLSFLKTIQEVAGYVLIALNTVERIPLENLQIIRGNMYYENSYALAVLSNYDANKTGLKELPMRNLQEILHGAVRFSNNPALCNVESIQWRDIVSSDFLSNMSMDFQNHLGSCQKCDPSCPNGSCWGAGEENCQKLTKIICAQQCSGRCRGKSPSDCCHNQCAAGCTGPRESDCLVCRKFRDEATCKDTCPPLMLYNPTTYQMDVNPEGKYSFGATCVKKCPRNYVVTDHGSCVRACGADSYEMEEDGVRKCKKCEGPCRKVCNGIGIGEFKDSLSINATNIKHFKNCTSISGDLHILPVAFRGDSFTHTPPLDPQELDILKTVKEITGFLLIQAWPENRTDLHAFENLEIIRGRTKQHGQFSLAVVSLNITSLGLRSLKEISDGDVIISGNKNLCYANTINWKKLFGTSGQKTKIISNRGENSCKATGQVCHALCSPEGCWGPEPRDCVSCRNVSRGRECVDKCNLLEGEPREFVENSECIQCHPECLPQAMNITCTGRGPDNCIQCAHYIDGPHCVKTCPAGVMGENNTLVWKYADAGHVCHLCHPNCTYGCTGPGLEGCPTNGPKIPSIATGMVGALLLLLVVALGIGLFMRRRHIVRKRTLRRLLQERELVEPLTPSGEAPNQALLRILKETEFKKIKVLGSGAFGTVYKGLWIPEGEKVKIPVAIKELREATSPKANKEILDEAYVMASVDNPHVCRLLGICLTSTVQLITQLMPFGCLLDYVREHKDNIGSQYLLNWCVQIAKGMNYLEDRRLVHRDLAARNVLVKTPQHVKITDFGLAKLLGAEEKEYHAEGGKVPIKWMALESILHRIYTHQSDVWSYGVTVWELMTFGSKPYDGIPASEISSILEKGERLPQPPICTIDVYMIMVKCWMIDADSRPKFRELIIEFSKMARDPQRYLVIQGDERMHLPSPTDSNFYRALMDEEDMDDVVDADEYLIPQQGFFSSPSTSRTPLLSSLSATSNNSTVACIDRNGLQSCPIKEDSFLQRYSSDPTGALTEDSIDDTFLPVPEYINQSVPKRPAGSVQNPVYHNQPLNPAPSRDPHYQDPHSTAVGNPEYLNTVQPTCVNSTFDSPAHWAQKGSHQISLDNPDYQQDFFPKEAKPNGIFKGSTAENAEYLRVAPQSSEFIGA
row,SMILES,pIC50
1,Cc1c(C(=O)NCCCN2CCOCC2)cn2ncnc(C3C(=O)Nc4cc(F)ccc43)c12 (stereo not given),4.60 to 8.52
2,Cc1c(OCCCn2nccn2)cn2ncnc(Nc3ccc(Br)cc3F)c12,4.60 to 8.52
3,COC(=O)c1cn2ncnc(Nc3cccc(NC(C)=O)c3)c2c1C,4.60 to 8.52
4,Cc1c(C(=O)NCCCN2CCOCC2)cn2ncnc(Nc3ccc(Br)cc3)c12,4.60 to 8.52
5,CCOC(=O)c1cn2ncnc(C3C(=O)Nc4ccccc43)c2c1C(=O)OCC (stereo not given),4.60 to 8.52
6,Cc1c(OCCn2cncn2)cn2ncnc(C3C(=O)Nc4ccccc43)c12 (stereo not given),4.60 to 8.52
7,Cc1ccc(Nc2ncnn3cc(OCCCn4nccn4)c(C)c23)cc1O,4.60 to 8.52
8,COC(=O)c1cn2ncnc(C3C(=O)N(C)c4ccccc43)c2c1C (stereo not given),4.60 to 8.52
9,COC(=O)c1cn2ncnc(Nc3cc(O)c4ccccc4c3)c2c1C,4.60 to 8.52
10,Cc1c(C(=O)NCCN2CCOCC2)cn2ncnc(C3C(=O)Nc4ccccc43)c12 (stereo not given),4.60 to 8.52
11,Cc1c(C(N)=O)cn2ncnc(C3C(=O)Nc4ccccc43)c12 (stereo not given),4.60 to 8.52
12,COC(=O)c1cn2ncnc(Nc3cccc(S(=O)(=O)O)c3)c2c1C,4.60 to 8.52
13,Cc1c(C(=O)NCCCn2cncn2)cn2ncnc(C3C(=O)Nc4ccccc43)c12 (stereo not given),4.60 to 8.52
14,Cc1c(C(=O)OCc2ccccc2)cn2ncnc(C3C(=O)Nc4ccccc43)c12 (stereo not given),4.60 to 8.52
15,Cc1ccc(Nc2ncnn3c(C)cc(C)c23)cc1O,4.60 to 8.52
16,Cc1ccc(Nc2ncnn3cc(C)c(C)c23)cc1O,4.60 to 8.52
17,COC(=O)c1cn2ncnc(C3C(=O)Nc4ccc(C#N)cc43)c2c1C (stereo not given),4.60 to 8.52
18,CCc1c(C(=O)NCCCn2ccnc2)cn2ncnc(Nc3ccc4c(cnn4Cc4ccccc4)c3)c12,4.60 to 8.52
19,Cc1c(C(=O)CCN2CCN(C)CC2)cn2ncnc(C3C(=O)Nc4ccccc43)c12 (stereo not given),4.60 to 8.52
20,COC(=O)c1cn2ncnc(Nc3ccc(O)c(C(=O)O)c3)c2c1C,4.60 to 8.52
21,COC(=O)c1cn2ncnc(Nc3ccc(Oc4ccccc4)cc3)c2c1C,4.60 to 8.52
22,Clc1ccc(Nc2ncnn3cccc23)cc1,4.60 to 8.52

row,SMILES,pIC50
1,COC(=O)c1cn2ncnc(Nc3cccc(O)c3)c2c1C,4.60 to 8.52
2,COC(=O)c1cn2ncnc(C3C(=O)Nc4ccc(S(=O)(=O)NCCN5CCOCC5)cc43)c2c1C (stereo not given),4.60 to 8.52
3,Clc1ccc(Nc2ncnn3c(Br)ccc23)cc1,4.60 to 8.52
4,COc1c(C(=O)NCCN2CCCC2)cn2ncnc(Nc3ccc(Br)cc3F)c12,4.60 to 8.52
5,Cc1c(C(=O)NCC2CCCO2)cn2ncnc(C3C(=O)Nc4ccccc43)c12 (stereo not given),4.60 to 8.52
6,COc1c(C(=O)NCCCn2cncn2)cn2ncnc(C3C(=O)Nc4ccccc43)c12 (stereo not given),4.60 to 8.52
7,COC(=O)c1cn2ncnc(Nc3ccc(OC)c(O)c3)c2c1C,4.60 to 8.52
8,Fc1cc(Cl)ccc1Nc1ncnn2cccc12,4.60 to 8.52
9,COC(=O)c1cn2ncnc(C3C(=O)Nc4nc(C)ncc43)c2c1C (stereo not given),4.60 to 8.52
10,Cc1cc2c(Nc3ccc(Br)cc3F)ncnn2c1,4.60 to 8.52
11,COC(=O)c1cn2ncnc(C3C(=O)Nc4ccc(S(=O)(=O)N(C)C)cc43)c2c1C (stereo not given),4.60 to 8.52
12,COC(=O)c1cn2ncnc(Nc3ccc(NC(C)=O)nc3)c2c1C,4.60 to 8.52
13,COC(=O)c1cn2ncnc(Nc3ccc4c(c3)C(=O)NC4=O)c2c1C,4.60 to 8.52
14,COC(=O)c1cn2ncnc(Nc3cccc(O)c3C)c2c1C,4.60 to 8.52
15,COc1cn2ncnc(Nc3ccc(C)c(O)c3)c2c1OC,4.60 to 8.52
16,COC(=O)c1cn2ncnc(Nc3cccc4cnccc34)c2c1C,4.60 to 8.52
17,COC(=O)c1cn2ncnc(Nc3ccc4cc[nH]c4c3)c2c1C,4.60 to 8.52
18,CC(=O)N1CCc2ccc(Nc3ncnn4cccc34)cc21,4.60 to 8.52
19,Cc1c(OCCCn2cncn2)cn2ncnc(C3C(=O)Nc4ccccc43)c12 (stereo not given),4.60 to 8.52
20,CCc1ccc(Nc2ncnn3cc(C(=O)NCCCN4CCOCC4)c(C)c23)cc1O,4.60 to 8.52
21,Cc1ccc(Nc2ncnn3cc(C(=O)NCCCN4CCCC4)c(C)c23)cc1O,4.60 to 8.52
22,Cc1nc(C2C(=O)Nc3ccccc32)c2c(C)c(C(=O)NCCN3CCCC3)cn2n1 (stereo not given),4.60 to 8.52

row,SMILES,pIC50
1,CCc1c(C(=O)N(CCCn2ccnc2)c2ccccn2)cn2ncnc(Nc3ccc4c(cnn4Cc4ccccc4)c3)c12,4.60 to 8.52
2,COC(=O)c1cn2ncnc(Nc3ccc4c(C)cc(=O)[nH]c4c3)c2c1C,4.60 to 8.52
3,COC(=O)c1cn2ncnc(Nc3ccc(OC)c(OC)c3)c2c1C,4.60 to 8.52
4,COC(=O)c1cn2ncnc(C3C(=O)Nc4ccc(S(=O)(=O)N5CCOCC5)cc43)c2c1C (stereo not given),4.60 to 8.52
5,COC(=O)c1cn2ncnc(Nc3ccc4c(cnn4Cc4ccccc4)c3)c2c1C,4.60 to 8.52
6,Cc1c(C(=O)NCCCN2CCOCC2)cn2ncnc(C3C(=O)Nc4ccccc43)c12 (stereo not given),4.60 to 8.52
7,Cc1ccc(Nc2ncnn3cc(Cn4cncn4)c(C)c23)cc1O,4.60 to 8.52
8,COC(=O)c1cn2ncnc(C3C(=O)Nc4ccc(S(=O)(=O)NCCN5CCCC5)cc43)c2c1C (stereo not given),4.60 to 8.52
9,Cc1ccc2c(Nc3ccc(Br)cc3F)ncnn12,4.60 to 8.52
10,Cc1nc(Nc2ccc(C)c(O)c2)c2c(C)c(C(N)=O)cn2n1,4.60 to 8.52
11,Cc1nc(C2C(=O)Nc3ccccc32)c2c(C)c(C(N)=O)cn2n1 (stereo not given),4.60 to 8.52
12,COc1c(OCc2ccccc2)cn2ncnc(C3C(=O)Nc4ccccc43)c12 (stereo not given),4.60 to 8.52
13,Cc1ccc(Nc2ncnn3cc(C(=O)NCCN(C)C)c(C)c23)cc1O,4.60 to 8.52
14,COC(=O)c1cn2ncnc(Nc3ccc(Cl)c([N+](=O)[O-])c3)c2c1C,4.60 to 8.52
15,COCCCNC(=O)c1cn2ncnc(C3C(=O)Nc4ccccc43)c2c1C (stereo not given),4.60 to 8.52
16,COC(=O)c1cn2ncnc(Nc3cccc(CO)c3)c2c1C,4.60 to 8.52
17,Cc1c(C(=O)NCCCn2ccnc2C)cn2ncnc(C3C(=O)Nc4ccccc43)c12 (stereo not given),4.60 to 8.52
18,COc1c(C(=O)N(C)CCN2CCCC2)cn2ncnc(Nc3ccc(Br)cc3F)c12,4.60 to 8.52
19,COC(=O)c1cn2ncnc(Nc3cc(NS(C)(=O)=O)ccc3C)c2c1C,4.60 to 8.52
20,COC(=O)c1cn2ncnc(Nc3ccc(C#N)c(O)c3)c2c1C,4.60 to 8.52
21,COC(=O)c1cn2ncnc(Nc3ccc(F)c(Cl)c3)c2c1CCCOCc1ccccc1,4.60 to 8.52
22,Cc1c(C(=O)NCCCN2CCCC2)cn2ncnc(C3C(=O)Nc4ccccc43)c12 (stereo not given),4.60 to 8.52

# More lines, now with the values ahead:
row,pIC50,SMILES
1,4.60 to 8.52,COCCCNC(=O)c1cn2ncnc(Nc3ccc(C)c(O)c3)c2c1C
2,4.60 to 8.52,CCOC(=O)c1cn2ncnc(NCCOC)c2c1CC
3,4.60 to 8.52,CCOC(=O)c1cn2ncnc(Nc3ccc(C)c(O)c3)c2c1OC
4,4.60 to 8.52,CCOC(=O)c1cn2ncnc(Nc3cccc4c3cnn4Cc3ccccc3)c2c1CC
5,4.60 to 8.52,CCOC(=O)c1cn2ncnc(NCc3cccc(Br)c3)c2c1CC
6,4.60 to 8.52,CCCCNS(=O)(=O)c1cccc(Nc2ncnn3cc(C(=O)OC)c(C)c23)c1
7,4.60 to 8.52,CCOC(=O)c1cn2ncnc(NCCc3ccccn3)c2c1CC
8,4.60 to 8.52,COC(=O)c1cn2ncnc(Nc3ccc(C)c(C)c3)c2c1C
9,4.60 to 8.52,CCCCNc1ncnn2cc(C(=O)OCC)c(CC)c12
10,4.60 to 8.52,COC(=O)c1cn2ncnc(Nc3ccc(OC)cc3)c2c1C
11,4.60 to 8.52,CCOC(=O)c1cn2ncnc(NCC3(O)CCCCC3)c2c1CC
12,4.60 to 8.52,COC(=O)c1cn2ncnc(Nc3ccc(C)c(O)c3)c2c1C
13,4.60 to 8.52,CCc1c(C(=O)NCCN2CCCC2)cn2ncnc(Nc3ccc(OC)nc3)c12
14,4.60 to 8.52,COC(=O)c1cn2ncnc(Nc3ccc(Br)c(C)c3)c2c1C
15,4.60 to 8.52,CCOC(=O)c1cn2ncnc(Nc3ccc4cn[nH]c4c3)c2c1CC
16,4.60 to 8.52,COC(=O)c1cn2ncnc(Nc3cc(CO)ccc3C)c2c1C
17,4.60 to 8.52,CCOC(=O)c1cn2ncnc(N3CCOCC3)c2c1CC
18,4.60 to 8.52,CCOC(=O)c1cn2ncnc(Nc3ccc(OC)cc3)c2c1CC
19,4.60 to 8.52,CCOC(=O)c1cn2ncnc(Nc3ccc(C)c(O)c3)c2c1Cc1ccccc1
20,4.60 to 8.52,CCOC(=O)c1cn2ncnc(C3C(=O)Nc4ccccc43)c2c1OCC (stereo not given)
21,4.60 to 8.52,CCOC(=O)c1cn2ncnc(NCc3ccccc3)c2c1CC
22,4.60 to 8.52,COC(=O)c1cn2ncnc(Nc3ccc(C)c(OC)c3)c2c1C
23,4.60 to 8.52,CCOC(=O)c1cn2ncnc(Cc3ccc(F)c(Cl)c3)c2c1C(C)C
24,4.60 to 8.52,CCCc1ccc(Nc2ncnn3cc(C(=O)OC)c(C)c23)cc1O
25,4.60 to 8.52,CCOC(=O)c1cn2ncnc(Nc3ccc(OC)nc3)c2c1CC
26,4.60 to 8.52,COC(=O)c1cn2ncnc(Nc3ccc(C)c(F)c3)c2c1C
27,4.60 to 8.52,COC(=O)c1cn2ncnc(Nc3cc(C)cc(O)c3)c2c1C
28,4.60 to 8.52,CCOC(=O)c1cn2ncnc(Nc3ccc(F)c(Cl)c3)c2c1CC
29,4.60 to 8.52,COC(=O)c1cn2ncnc(Nc3cc(C)[nH]n3)c2c1C
